Read-outs that look alike come from different tables or passages of the source.
How the values were obtained:
Assay in all cases: kinase profiling panel
Assay type in all cases: biochemical
Settings in all cases: read-out: % Activity Remaining
TTBK1 = TTBK1 (Homo sapiens, UniProt Q5TCY1)
Description: (§1) Protein kinase profiling against a Dundee panel of 140 protein kinases was undertaken at the International Centre for Protein Kinase Profiling. The result for each kinase was presented as a mean kinase activity of the reaction taken in triplicate relative to a control sample treated with DMSO. Assay conditions and abbreviations are available at http://www.kinase-screen.mrc.ac.uk.

ZAP70 = biological target: T1, ZAP70 (Homo sapiens, UniProt P43403)
T1 sequence (P43403 1-619): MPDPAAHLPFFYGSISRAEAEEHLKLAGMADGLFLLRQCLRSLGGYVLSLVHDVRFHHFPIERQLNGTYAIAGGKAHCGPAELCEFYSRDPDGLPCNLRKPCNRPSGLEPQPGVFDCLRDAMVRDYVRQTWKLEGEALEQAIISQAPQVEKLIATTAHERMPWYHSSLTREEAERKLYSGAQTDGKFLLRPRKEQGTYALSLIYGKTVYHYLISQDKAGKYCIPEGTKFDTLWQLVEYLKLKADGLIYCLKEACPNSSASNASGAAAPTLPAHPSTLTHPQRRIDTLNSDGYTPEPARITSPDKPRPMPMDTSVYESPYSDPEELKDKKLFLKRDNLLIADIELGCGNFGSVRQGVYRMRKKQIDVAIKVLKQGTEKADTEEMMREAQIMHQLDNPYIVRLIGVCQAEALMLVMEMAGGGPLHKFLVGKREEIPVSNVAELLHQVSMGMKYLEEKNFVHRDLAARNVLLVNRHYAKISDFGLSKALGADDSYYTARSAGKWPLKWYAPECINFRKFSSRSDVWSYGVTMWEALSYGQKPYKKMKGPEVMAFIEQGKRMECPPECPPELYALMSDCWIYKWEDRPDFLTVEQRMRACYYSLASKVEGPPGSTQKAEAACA
Description: as §1

SGK1 = biological target: T2, SGK1 (Homo sapiens, UniProt O00141)
T2 sequence (O00141 1-431): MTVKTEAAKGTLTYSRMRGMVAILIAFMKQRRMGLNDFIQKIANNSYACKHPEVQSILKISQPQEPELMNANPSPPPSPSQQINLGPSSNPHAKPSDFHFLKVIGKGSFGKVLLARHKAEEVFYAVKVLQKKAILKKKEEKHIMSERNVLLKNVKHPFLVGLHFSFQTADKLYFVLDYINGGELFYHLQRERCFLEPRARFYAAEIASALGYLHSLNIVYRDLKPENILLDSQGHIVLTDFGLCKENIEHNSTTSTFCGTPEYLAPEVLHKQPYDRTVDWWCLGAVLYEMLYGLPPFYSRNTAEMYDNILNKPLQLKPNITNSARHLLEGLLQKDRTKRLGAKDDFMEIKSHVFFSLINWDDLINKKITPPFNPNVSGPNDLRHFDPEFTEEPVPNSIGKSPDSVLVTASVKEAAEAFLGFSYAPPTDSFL
Description: as §1

MST4 = MST4 (Homo sapiens, UniProt Q9P289)
Description: as §1

PIM1 = PIM1 (Homo sapiens, UniProt P11309)
Description: as §1

BRSK1 = biological target: T3, BRSK1 (Homo sapiens, UniProt Q8TDC3)
T3 sequence (Q8TDC3 1-778): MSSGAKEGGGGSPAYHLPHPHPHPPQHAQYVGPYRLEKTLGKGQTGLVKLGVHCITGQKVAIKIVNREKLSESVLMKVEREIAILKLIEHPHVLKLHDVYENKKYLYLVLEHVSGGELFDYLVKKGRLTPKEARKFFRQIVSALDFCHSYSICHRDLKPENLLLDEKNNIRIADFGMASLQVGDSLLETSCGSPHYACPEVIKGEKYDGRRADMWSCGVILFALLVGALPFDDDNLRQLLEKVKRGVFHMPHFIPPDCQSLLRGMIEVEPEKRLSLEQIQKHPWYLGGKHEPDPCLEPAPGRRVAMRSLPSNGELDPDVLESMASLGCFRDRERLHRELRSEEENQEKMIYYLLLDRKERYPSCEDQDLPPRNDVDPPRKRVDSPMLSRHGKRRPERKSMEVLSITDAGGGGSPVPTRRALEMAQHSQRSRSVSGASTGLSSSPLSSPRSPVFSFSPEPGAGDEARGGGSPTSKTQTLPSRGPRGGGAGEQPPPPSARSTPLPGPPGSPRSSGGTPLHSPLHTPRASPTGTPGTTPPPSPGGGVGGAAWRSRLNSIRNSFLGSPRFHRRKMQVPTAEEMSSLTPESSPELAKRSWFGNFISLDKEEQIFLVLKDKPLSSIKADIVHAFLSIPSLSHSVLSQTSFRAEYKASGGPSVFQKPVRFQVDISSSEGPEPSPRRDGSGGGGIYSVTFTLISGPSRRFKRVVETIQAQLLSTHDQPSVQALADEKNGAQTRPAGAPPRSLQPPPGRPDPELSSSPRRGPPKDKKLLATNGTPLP
Description: as §1

PAK4 = PAK4 (Homo sapiens, UniProt O96013)
Description: as §1

PKB beta = PKB beta (Homo sapiens, UniProt P31751)
Description: as §1

Aurora A = biological target: T4, Aurora A (Homo sapiens, UniProt O14965)
T4 sequence (O14965 1-403): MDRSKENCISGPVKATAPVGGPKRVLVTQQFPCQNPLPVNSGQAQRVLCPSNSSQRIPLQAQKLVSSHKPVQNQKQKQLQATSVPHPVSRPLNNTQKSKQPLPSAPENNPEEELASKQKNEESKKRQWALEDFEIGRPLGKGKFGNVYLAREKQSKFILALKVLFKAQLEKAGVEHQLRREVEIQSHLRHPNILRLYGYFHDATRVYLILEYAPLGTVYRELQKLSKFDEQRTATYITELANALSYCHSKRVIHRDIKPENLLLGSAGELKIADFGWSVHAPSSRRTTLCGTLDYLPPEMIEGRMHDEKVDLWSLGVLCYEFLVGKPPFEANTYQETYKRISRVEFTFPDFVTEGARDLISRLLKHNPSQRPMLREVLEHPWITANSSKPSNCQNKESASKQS
Description: as §1

Chain of TTBK1 (Q5TCY1 whole entry): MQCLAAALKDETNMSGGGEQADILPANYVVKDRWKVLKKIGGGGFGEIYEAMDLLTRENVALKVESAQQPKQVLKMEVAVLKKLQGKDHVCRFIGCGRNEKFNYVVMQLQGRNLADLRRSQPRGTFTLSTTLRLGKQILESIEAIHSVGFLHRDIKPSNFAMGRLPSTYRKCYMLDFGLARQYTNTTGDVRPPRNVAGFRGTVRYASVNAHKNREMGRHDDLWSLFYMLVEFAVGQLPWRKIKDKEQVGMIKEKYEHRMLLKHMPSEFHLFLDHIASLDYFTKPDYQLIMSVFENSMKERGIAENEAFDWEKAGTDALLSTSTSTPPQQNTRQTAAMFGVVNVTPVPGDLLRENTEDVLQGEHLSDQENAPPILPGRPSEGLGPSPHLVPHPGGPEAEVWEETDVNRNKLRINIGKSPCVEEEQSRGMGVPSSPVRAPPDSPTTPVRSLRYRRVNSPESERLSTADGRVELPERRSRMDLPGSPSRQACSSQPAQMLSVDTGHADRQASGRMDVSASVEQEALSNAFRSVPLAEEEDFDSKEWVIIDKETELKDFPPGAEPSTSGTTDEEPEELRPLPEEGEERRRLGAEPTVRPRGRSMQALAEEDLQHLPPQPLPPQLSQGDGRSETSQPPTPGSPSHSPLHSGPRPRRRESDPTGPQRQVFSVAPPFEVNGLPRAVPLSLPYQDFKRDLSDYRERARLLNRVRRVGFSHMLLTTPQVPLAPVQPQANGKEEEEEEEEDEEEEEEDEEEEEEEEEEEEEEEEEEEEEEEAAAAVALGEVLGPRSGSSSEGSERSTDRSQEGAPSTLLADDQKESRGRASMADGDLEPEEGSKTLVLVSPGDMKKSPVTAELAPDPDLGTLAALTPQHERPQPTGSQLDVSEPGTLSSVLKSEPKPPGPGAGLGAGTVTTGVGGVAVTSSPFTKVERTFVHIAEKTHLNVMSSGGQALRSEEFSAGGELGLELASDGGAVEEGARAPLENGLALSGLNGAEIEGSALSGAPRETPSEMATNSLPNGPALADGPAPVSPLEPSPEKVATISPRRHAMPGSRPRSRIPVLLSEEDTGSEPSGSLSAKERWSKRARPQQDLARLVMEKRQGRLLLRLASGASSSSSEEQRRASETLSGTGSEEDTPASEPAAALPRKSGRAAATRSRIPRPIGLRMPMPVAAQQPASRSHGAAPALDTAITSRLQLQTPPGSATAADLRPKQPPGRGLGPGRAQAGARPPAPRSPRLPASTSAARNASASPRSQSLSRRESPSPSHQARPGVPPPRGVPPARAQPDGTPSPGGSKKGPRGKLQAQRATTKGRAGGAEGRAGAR
Chain of PKB beta (P31751 whole entry): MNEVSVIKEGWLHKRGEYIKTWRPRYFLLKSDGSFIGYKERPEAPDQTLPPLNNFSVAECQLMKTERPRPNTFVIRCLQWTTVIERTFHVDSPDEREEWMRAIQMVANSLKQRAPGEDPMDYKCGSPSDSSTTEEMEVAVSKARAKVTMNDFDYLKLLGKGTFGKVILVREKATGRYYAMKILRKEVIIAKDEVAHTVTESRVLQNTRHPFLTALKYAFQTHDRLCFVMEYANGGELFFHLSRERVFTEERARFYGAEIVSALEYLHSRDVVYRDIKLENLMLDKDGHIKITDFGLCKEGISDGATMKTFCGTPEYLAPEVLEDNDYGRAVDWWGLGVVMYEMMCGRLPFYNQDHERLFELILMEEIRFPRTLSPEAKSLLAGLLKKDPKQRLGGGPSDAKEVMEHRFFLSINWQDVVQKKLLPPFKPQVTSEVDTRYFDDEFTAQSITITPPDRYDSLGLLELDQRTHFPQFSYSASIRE
Chain of PIM1 (P11309 whole entry): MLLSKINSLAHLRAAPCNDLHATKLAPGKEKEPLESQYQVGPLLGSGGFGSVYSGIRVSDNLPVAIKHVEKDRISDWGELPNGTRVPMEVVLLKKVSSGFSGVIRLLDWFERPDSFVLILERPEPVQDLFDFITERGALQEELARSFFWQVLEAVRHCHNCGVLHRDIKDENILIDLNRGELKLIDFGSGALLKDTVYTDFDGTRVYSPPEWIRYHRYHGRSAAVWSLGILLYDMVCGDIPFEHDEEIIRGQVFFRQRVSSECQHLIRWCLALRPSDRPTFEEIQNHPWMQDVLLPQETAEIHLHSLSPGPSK
Chain of PAK4 (O96013 whole entry): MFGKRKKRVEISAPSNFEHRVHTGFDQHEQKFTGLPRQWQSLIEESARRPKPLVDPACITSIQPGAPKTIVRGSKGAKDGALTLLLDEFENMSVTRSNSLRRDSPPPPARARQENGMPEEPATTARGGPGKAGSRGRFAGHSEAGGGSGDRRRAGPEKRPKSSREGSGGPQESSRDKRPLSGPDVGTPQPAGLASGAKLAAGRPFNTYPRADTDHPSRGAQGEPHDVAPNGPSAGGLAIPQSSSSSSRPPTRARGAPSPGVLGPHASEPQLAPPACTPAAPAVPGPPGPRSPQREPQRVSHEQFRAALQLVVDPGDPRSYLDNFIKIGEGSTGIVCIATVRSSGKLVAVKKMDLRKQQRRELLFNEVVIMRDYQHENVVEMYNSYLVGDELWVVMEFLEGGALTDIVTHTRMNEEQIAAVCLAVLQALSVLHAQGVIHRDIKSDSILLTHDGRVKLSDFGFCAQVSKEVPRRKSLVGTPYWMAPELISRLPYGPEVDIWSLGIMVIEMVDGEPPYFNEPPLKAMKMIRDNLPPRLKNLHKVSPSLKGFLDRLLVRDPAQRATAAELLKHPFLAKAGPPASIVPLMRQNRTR
Chain of MST4 (Q9P289 whole entry): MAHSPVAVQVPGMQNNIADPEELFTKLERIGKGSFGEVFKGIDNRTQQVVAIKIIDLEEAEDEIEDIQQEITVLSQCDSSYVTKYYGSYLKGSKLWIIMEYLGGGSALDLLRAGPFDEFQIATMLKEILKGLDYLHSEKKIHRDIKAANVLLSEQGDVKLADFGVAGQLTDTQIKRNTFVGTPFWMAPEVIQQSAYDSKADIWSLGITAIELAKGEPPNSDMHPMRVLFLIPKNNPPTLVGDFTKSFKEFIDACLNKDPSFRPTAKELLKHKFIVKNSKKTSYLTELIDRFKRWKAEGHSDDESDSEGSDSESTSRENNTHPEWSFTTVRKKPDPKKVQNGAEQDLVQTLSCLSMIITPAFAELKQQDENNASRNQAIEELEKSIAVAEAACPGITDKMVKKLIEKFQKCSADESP

Row | Structure (SMILES) | remaining activity at 1 µM (TTBK1) [%] | remaining activity at 1 µM (ZAP70) [%] | remaining activity at 1 µM (SGK1) [%] | remaining activity at 1 µM (MST4) [%] | remaining activity at 1 µM (PIM1) [%] | remaining activity at 1 µM (BRSK1) [%] | remaining activity at 1 µM (PAK4) [%] | remaining activity at 1 µM (PKB beta) [%] | remaining activity at 1 µM (Aurora A) [%] | remaining activity at 1 µM (TTBK1; 1 µM) [%] | remaining activity at 1 µM (ZAP70; 1 µM) [%] | remaining activity at 1 µM (SGK1; 1 µM) [%] | remaining activity at 1 µM (MST4; 1 µM) [%] | remaining activity at 1 µM (PIM1; 1 µM) [%] | remaining activity at 1 µM (BRSK1; 1 µM) [%] | remaining activity at 1 µM (PAK4; 1 µM) [%] | remaining activity at 1 µM (PKB beta; 1 µM) [%] | remaining activity at 1 µM (Aurora A; 1 µM) [%]
1 | COc1ccc(Cl)c(S(=O)(=O)Nc2ccc(-c3nc(OC[C@H]4CNCCO4)c4c(C)n[nH]c4n3)cc2)c1 [290-R, reference compound] | 109 | 98 | 2 | 50 | 83 | 95 | 91 | 55 | 108 |  |  |  |  |  |  |  |  | 
2 | Cc1ccc(F)c(S(=O)(=O)Nc2ccc(-c3nc(OC[C@H]4CNCCO4)c4cn[nH]c4n3)cc2)c1 [308-R, reference compound] |  | 101 | 10 | 98 | 104 | 106 | 102 | 35 | 109 | 91 |  |  |  |  |  |  |  | 
3 | Cc1ccc(F)c(S(=O)(=O)Nc2ccc(-c3nc(OC[C@H]4CN(CCCCCCOCCOCCOCC(=O)N[C@H](C(=O)N5C[C@H](O)C[C@H]5C(=O)NCc5ccc(-c6scnc6C)cc5)C(C)(C)C)CCO4)c4cn[nH]c4n3)cc2)c1 [SGK3-PROTAC1] |  |  |  |  |  |  |  |  |  | 105 | 75 | 34 | 106 | 94 | 108 | 81 | 99 | 90
4 | Cc1ccc(F)c(S(=O)(=O)Nc2ccc(-c3nc(OC[C@H]4CN(CCCCCCOCCOCCOCC(=O)N[C@H](C(=O)N5C[C@@H](O)C[C@H]5C(=O)NCc5ccc(-c6scnc6C)cc5)C(C)(C)C)CCO4)c4cn[nH]c4n3)cc2)c1 [cisSGK3-PROTAC1] |  |  |  |  |  |  |  |  |  | 113 | 75 | 51 | 99 | 97 | 106 | 113 | 101 | 91

Reference: PMC6757289, “Design and Characterization of SGK3-PROTAC1, an Isoform Specific SGK3 Kinase PROTAC Degrader” (ACS Chemical Biology, 2019)
